Assay results from patent US8956824B2, “Methods for identifying allosteric modulators of ship polypeptides” (British Columbia Cancer Agency Branch, priority 2006, dated 2015).
Entries after “also recorded” stand apart in the source; their conditions may differ.

Experiments:
[1] = molecular target: T1, C2 domain deleted (ΔC2) SHIP1 enzyme (Mus musculus, UniProt Q9ES52, DEL725-860/G861A/K862A/M863A); experiment: In vitro SHIP enzyme assay, C2 domain deleted SHIP1; assay type: biochemical; settings: FIG. 4B, FIG. 10
T1 construct: Full length, wild-type SHIP1 enzyme (wt) or SHIP1 enzyme in which the PH or C2 domains were deleted; made in house; 293T cells are stated only for the wild-type enzyme
T1 sequence (Q9ES52 with tags, fused parts or gaps DEL725-860/G861A/K862A/M863A limits assumed): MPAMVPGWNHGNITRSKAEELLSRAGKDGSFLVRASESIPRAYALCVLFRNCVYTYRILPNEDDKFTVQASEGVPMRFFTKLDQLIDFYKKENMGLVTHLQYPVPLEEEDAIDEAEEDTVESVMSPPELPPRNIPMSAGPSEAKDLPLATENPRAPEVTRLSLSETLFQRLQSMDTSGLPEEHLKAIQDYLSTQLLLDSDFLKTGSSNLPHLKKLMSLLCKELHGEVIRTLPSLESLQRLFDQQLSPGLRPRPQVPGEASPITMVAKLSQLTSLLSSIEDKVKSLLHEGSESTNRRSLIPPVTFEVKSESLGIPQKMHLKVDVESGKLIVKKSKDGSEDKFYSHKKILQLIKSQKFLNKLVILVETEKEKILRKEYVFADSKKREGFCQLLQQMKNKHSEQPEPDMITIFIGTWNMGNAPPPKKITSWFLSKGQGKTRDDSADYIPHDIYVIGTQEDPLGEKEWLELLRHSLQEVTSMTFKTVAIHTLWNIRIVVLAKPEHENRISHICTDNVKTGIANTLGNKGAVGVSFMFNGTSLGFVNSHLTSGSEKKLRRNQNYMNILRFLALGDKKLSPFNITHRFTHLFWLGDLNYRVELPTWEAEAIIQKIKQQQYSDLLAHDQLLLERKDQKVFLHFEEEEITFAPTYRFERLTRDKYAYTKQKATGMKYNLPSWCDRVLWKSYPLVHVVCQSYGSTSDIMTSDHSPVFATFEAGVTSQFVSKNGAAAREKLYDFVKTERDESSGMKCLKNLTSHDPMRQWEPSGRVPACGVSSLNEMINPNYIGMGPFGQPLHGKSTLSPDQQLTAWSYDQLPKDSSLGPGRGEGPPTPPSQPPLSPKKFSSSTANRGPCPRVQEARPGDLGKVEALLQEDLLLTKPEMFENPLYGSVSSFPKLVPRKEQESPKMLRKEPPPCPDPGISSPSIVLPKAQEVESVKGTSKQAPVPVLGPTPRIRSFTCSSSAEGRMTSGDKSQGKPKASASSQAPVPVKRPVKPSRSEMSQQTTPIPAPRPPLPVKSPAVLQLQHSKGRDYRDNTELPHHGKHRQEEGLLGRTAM
From the text: The mouse SHIP1 ΔC2 domain deletion mutant was generated by a standard PCR-based methodology using the primer pairs listed above, which in addition to being complementary to sequences immediately upstream and downstream of the C2 domain (amino acid residues 725 to 863), introduces a NotI restriction site. The PCR-products were digested with ClaI and NotI, and NotI and XbaI for the upstream and downstream fragments, respectively. Products were then resolved and imaged on a 1% agarose gel containing ethidium bromide and the appropriate sized fragments excised and purified using a column gel extraction kit (Qiagen, Mississauga, ON). In parallel, pME18S plasmid containing the cDNA for N-terminal His6-tagged SHIP1 was digested with ClaI and NotI, resolved and purified as before. Upstream fragment, downstream fragment and digested pME18S-SHIP plasmid were ligated to yield a plasmid coding for SHIP1 with the C2 domain deleted. An N-terminal His6 C2 domain was also generated by PCR using the primer pair indicated above and the resulting product inserted into the pET28C bacterial expression vector using EcoRI and NdeI restriction sites.
In vitro SHIP enzyme assay. The SHIP enzyme assay was performed in 96-well microtitre plates with 10 ng of enzyme/well in a total volume of 25 μL of 20 mM Tris HCl, pH 7.5 and 10 mM MgCl2. SHIP1 enzyme was incubated with test extracts (provided in DMSO) or vehicle for 15 mM at 23° C. before the addition of 100 μM inositol-1,3,4,5-tetrakisphosphate (Echelon Biosciences Inc, Salt Lake City, Utah). The reaction was allowed to proceed for 20 min at 37° C. and the amount of inorganic phosphate released assessed by the addition of Malachite Green reagent followed by an absorbance measurement at 650 nm (15). SHIP2 enzyme was purchased from Echelon Biosciences (Salt Lake City, Utah) and an equivalent amount of inositol phosphatase activity was used in the in vitro enzyme assay. Enzyme data are expressed as the mean of triplicates+/−SEM. Experiments were performed at least 3 times.

[2] = test system: DNFB-induced ear inflammation; experiment: Mouse acute cutaneous anaphylaxis model; assay type: in vivo; settings: topical
Description: Mouse acute cutaneous anaphylaxis model. 6-8 week old CD1 mice (University of British Columbia Animal Facility, Vancouver, BC) were sensitized to the hapten DNP by cutaneous application of 25 μL of 0.5% dinitroflourobenzene (DNFB) (Sigma, Oakville, Ont) in acetone to the shaved abdomen of mice for two consecutive days. In the AQX-016A experiments shown in FIG. 2F, 20 μCi of tritiated thymidine [3H]-Tdr (GE Healthcare, Piscataway, N.J.) was injected EP one week after the first DNFB application. [3H]-Tdr labels rapidly dividing cells of the mouse, including neutrophils (21). […] The resulting inflammatory cell infiltration was quantitated by taking a 6mm diameter punch from the ear 1 hr later for dissolution in SOLVABLE™ (Perkin Elmer-Packard, Woodbridge, Ont) and liquid scintillation counting as described (21). The ability of test substances to inhibit mast cell degranulation was then determined by calculating the ratio of [3H]-Tdr in the test (right) ear vs the control (left) ear as described (21). […]
In the later AQX-MN100 experiments, shown in FIG. 3E, the mice were sensitized as above with DNFB. […] Optical density readings at 450 nm were taken over 10 min at 30 s intervals. MPO activity was calculated as described (22) and expressed as Units per mg of protein per mL of lysate. […]

Row | Molecule | activation of SHIP1 with C2 domain deleted [1] | myeloperoxidase (MPO) levels in ears of allergen-challenged mice ([2]; P-value <0.02 vs vehicle) | allergen-induced inflammation (inflammatory cell recruitment to ear, [3H]-Tdr) ([2]; 30 min prior to DNFB, vs vehicle control-treated ear) | activation of SHIP1 with C2 domain deleted ([1]; listed as PI(3,4)P2)
1 | Cc1cc(O)cc2c1[C@]1(C)CC[C@H]3C(C)(C)CCC[C@]3(C)[C@H]1C2 [AQX-MN100] | impaired the ability of SHIP1 to be activated; also recorded: abrogates the ability of SHIP1 to be activated | reduced the levels of the inflammatory cell (neutrophil) specific myeloperoxidase enzyme; also recorded: inhibits DNFB-induced MPO in sensitized mice | – | –
2 | Cc1cc(O)c(O)c2c1[C@]1(C)CC[C@H]3C(C)(C)CCC[C@]3(C)[C@H]1C2 [AQX-016A] | – | – | dramatically inhibited allergen-induced inflammation | –
3 | phosphatidylinositol-3,4-bisphosphate [PI-3,4-P2, reference compound] | impaired the ability of SHIP1 to be activated | – | – | abrogates ability to be activated
